Test results from US10939684B2, “Preparation of sulfonamide-containing antimicrobials and substrate treating compositions of sulfonamide-containing antimicrobials” (NANO SAFE COATINGS INCORPORATED, priority 2015, dated 2021).
Entries after “also recorded” stand apart in the source; their conditions may differ.

Test system: Arthrobacter spp.
Experiment: Large-droplet inoculation method, antimicrobial efficacy at solid-air interfaces
Type: cell-based
Settings: for Average: average of A-C; for A (cfu): replicate A; for B (cfu): replicate B; for C (cfu): replicate C
Source text: Large-droplet inoculation method (Ronan E. et al, Biofouling 2013, 29, 1087-1096) Many pathogens are able to remain viable during extended periods of desiccation on inanimate surfaces. Long-term survival of pathogens in the inanimate environment pose a significant risk for infection transmission and contamination in high-risk environments such as hospital rooms or food-processing plants. The large-droplet inoculation method was developed to simulate the deposition of bacterial species onto exposed surfaces and to determine the ability of these cells to survive desiccation.
For these tests, small surface coupons were first coated with the antimicrobial using the method described above. Bacterial test species were grown overnight in a shaking incubator and cultures
were washed twice to replace the growth media with sterile water. 100 μL aliquots of the prepared culture were then inoculated onto multiple coated surfaces and allowed to air-dry within a biological safety cabinet. Drying typically occurred 2-3 hours after inoculation, and surviving cells were enumerated immediately and 24 hours after drying. For enumeration, inoculated coupons were sacrificed in triplicate and placed inside separate tubes containing 5 mL of a 0.9% saline collection liquid. Each coupon was agitated vigorously for 1 minute with a bench-top vortex to transfer cells from the test surface to the collection liquid. Plate counts were then performed on serial dilutions of the collection liquid, and colony counts from triplicate treated surfaces were averaged and compared to colony counts from tests of untreated control surfaces carried out in parallel.
A range of bacterial species were used in these tests. Arthrobacter spp., a gram-positive lab strain originally isolated from indoor air was used in the bulk of the testing, as it is known to be highly resistant to desiccation and therefore was used as a model for desiccation-tolerant pathogens. Efficacy tests were also carried out against, for example, gram-negative Escherichia coli (E. coli) and gram-positive Staphylococcus aureus (S. aureus), since they all contain pathogenic strains and have been implicated in major nosocomial outbreaks. […] The following are the tabulated bacterial reduction data: […]

[1] = treated polyethylene, 3 hours, load 2.70E+07
[2] = treated polyethylene, 24 hours, load 2.70E+07
[3] = treated cotton, 3 hours, load 1.28E+08
[4] = treated cotton, 3 hours, load 4.04E+07
[5] = treated cotton, 24 hours, load 1.28E+08
[6] = treated cotton, 24 hours, load 4.04E+07
[7] = treated cotton, compared to untreated control (FIG. 3, FIG. 4)
[8] = treated cotton, 3 hours, load 6.10E+07
[9] = treated cotton, 24 hours, load 6.10E+07

C[N+](C)(CCCNS(=O)(=O)c1ccccc1)CCCOc1ccc(C(=O)c2ccccc2)cc1.[Br-] [Example 1c, 3-(4-benzoylphenoxy)-N,N-dimethyl-N-(3-(phenylsulfonamido)propyl) propan-1-aminium bromide]
activity against Arthrobacter spp. (in words) (treated polyethylene coupons, compared to untreated control (FIG. 5), listed as 3-(4-benzoylphenoxy)-N,N-dimethyl-N-(3-(phenyl sulfonamido)propyl)propan- 1-amin): excellent activity
activity against Arthrobacter spp. (in words) (treated polyethylene coupons, compared to untreated control (FIG. 5), listed as 3-(4-benzoylphenoxy)-N,N-dimethyl-N-(3-(phenylsulfonamido)propyl)propan-1-aminiu): eradicated within three hours
Average [1]: 0.00E+00 cfu
A (cfu) [1]: 0.00E+00 cfu
B (cfu) [1]: 0.00E+00 cfu
C (cfu) [1]: 0.00E+00 cfu
Average [2]: 0.00E+00 cfu
A (cfu) [2]: 0.00E+00 cfu
B (cfu) [2]: 0.00E+00 cfu
C (cfu) [2]: 0.00E+00 cfu

C[N+](C)(CCCNS(=O)(=O)c1cccc2ccccc12)CCCOc1ccc(C(=O)c2ccccc2)cc1.[Br-] [Example 5c, 3-(4-benzoylphenoxy)-N,N-dimethyl-N-(3-(naphthalene-1-sulfonamido)propyl)propan-1-aminium bromide]
activity against Arthrobacter spp. (in words) (treated polyethylene coupons, compared to untreated control (FIG. 5), listed as 3-(4-benzoylphenoxy)-N,N-dimethyl-N-(3-(naphthalene-1-sulfonamido)propyl)propan-): eradicated within three hours
Average [1]: 0.00E+00 cfu
A (cfu) [1]: 0.00E+00 cfu
B (cfu) [1]: 0.00E+00 cfu
C (cfu) [1]: 0.00E+00 cfu
Average [2]: 0.00E+00 cfu
A (cfu) [2]: 0.00E+00 cfu
B (cfu) [2]: 0.00E+00 cfu
C (cfu) [2]: 0.00E+00 cfu

CO[Si](CCC[N+](C)(C)CCCNS(=O)(=O)c1ccc(C)cc1)(OC)OC.[Cl-] [Example 2a, N,N-dimethyl-3-(4-methylphenylsulfonamido)-N-(3-(trimethoxysilyl)propyl) propan-1-aminium chloride]
activity against Arthrobacter spp. (in words) (treated cotton, compared to untreated control (FIG. 3, FIG. 4), listed as N,N-dimethyl-3-(4-methylphenyl sulfonamido)-N-(3-(trimethoxysilyl)propyl)propan-): excellent activity
activity against Arthrobacter spp. (in words) (treated cotton, compared to untreated control (FIG. 3, FIG. 4), listed as N,N-dimethyl-3-(4-methylphenylsulfonamido)-N-(3-(trimethoxysilyl) propyl)propan-): excellent activity
activity against Arthrobacter spp. (in words) (treated cotton, compared to untreated control (FIG. 3, FIG. 4), listed as N,N-dimethyl-3-(4-methylphenylsulfonamido)-N-(3-(trimethoxysilyl)propyl)propan-1): eradicated within three hours
Average [3]: 0.00E+00 cfu
A (cfu) [3]: 0.00E+00 cfu
B (cfu) [3]: 0.00E+00 cfu
C (cfu) [3]: 0.00E+00 cfu
Average [4]: 0.00E+00 cfu
A (cfu) [4]: 0.00E+00 cfu
B (cfu) [4]: 0.00E+00 cfu
C (cfu) [4]: 0.00E+00 cfu
Average [5]: 0.00E+00 cfu
A (cfu) [5]: 0.00E+00 cfu
B (cfu) [5]: 0.00E+00 cfu
C (cfu) [5]: 0.00E+00 cfu
Average [6]: 0.00E+00 cfu
A (cfu) [6]: 0.00E+00 cfu
B (cfu) [6]: 0.00E+00 cfu
C (cfu) [6]: 0.00E+00 cfu

C[N+](C)(CCCNS(=O)(=O)c1cccc2ccccc12)CCCOc1ccc(C(=O)c2ccccc2)cc1.[Br-] [3-(4-benzoylphenoxy)-N,N-dimethyl-N-(3-(naphthalene-1-sulfonamido)propyl)propan-1-aminium bromide]
activity against Arthrobacter spp. (in words) (treated polyethylene coupons, compared to untreated control (FIG. 5)): excellent activity

CO[Si](CCC[N+](C)(C)CCCNS(=O)(=O)c1c(C)cc(C)cc1C)(OC)OC.[Cl-] [Example 3a, N,N-dimethyl-3-(trimethoxysilyl)-N-(3-(2,4,6-trimethylphenylsulfonamido)propyl)propan-1-aminium chloride]
activity against Arthrobacter spp. (in words) (treated cotton, compared to untreated control (FIG. 3, FIG. 4), listed as N,N-dimethyl-3-(trimethoxysilyl)-N-(3-(2,4,6-trimethyl phenylsulfonamido)propyl)): excellent activity
activity against Arthrobacter spp. (in words) (treated cotton, compared to untreated control (FIG. 3, FIG. 4), listed as N,N-dimethyl-3-(trimethoxysilyl)-N-(3-(2,4,6-trimethylphenylsulfonamido)propyl)p): eradicated within three hours
Average [4]: 0.00E+00 cfu
A (cfu) [4]: 0.00E+00 cfu
B (cfu) [4]: 0.00E+00 cfu
C (cfu) [4]: 0.00E+00 cfu
Average [6]: 0.00E+00 cfu
A (cfu) [6]: 0.00E+00 cfu
B (cfu) [6]: 0.00E+00 cfu
C (cfu) [6]: 0.00E+00 cfu

CO[Si](CCC[N+](C)(C)CCCNS(=O)(=O)c1cccc2ccccc12)(OC)OC.[Cl-] [Example 5a, N,N-dimethyl-3-(naphthalene-1-sulfonamido)-N-(3-(trimethoxysilyl)propyl)propan-1-aminium chloride]
activity against Arthrobacter spp. (in words) [7]: eradicated within three hours; also recorded: excellent activity
Average [8]: 0.00E+00 cfu
A (cfu) [8]: 0.00E+00 cfu
B (cfu) [8]: 0.00E+00 cfu
C (cfu) [8]: 0.00E+00 cfu
Average [9]: 0.00E+00 cfu
A (cfu) [9]: 0.00E+00 cfu
B (cfu) [9]: 0.00E+00 cfu
C (cfu) [9]: 0.00E+00 cfu

CO[Si](CCC[N+](C)(C)CCCNS(=O)(=O)c1ccccc1)(OC)OC.[Cl-] [Example 1a, N,N-dimethyl-3-(phenylsulfonamido)-N-(3-(trimethoxysilyl)propyl)propan-1-aminium chloride]
activity against Arthrobacter spp. (in words) [7]: eradicated within three hours; also recorded: excellent activity
Average [8]: 0.00E+00 cfu
A (cfu) [8]: 0.00E+00 cfu
B (cfu) [8]: 0.00E+00 cfu
C (cfu) [8]: 0.00E+00 cfu
Average [9]: 0.00E+00 cfu
A (cfu) [9]: 0.00E+00 cfu
B (cfu) [9]: 0.00E+00 cfu
C (cfu) [9]: 0.00E+00 cfu
